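Briefly, cells in 96-well plates were exposed to five compound concentrations for 48 h, and endpoints were estimated by linear interpolation. Definition used: TGI = concentration required for complete inhibition of growth.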
Columns and labels:
Assay in all cases: DTP human tumour cell line panel, 48 h
786-0 renal = tested on: 786-0 renal
A498 renal = tested on: A498 renal
A549 NSCLC = tested on: A549 NSCLC
ACHN renal = tested on: ACHN renal
BT-549 breast = tested on: BT-549 breast
CAKI-1 renal = tested on: CAKI-1 renal
CCRF-CEM leukemia = tested on: CCRF-CEM leukemia
COLO 205 colon = tested on: COLO 205 colon
DU-145 prostate = tested on: DU-145 prostate
EKVX NSCLC = tested on: EKVX NSCLC
HCT-116 colon = tested on: HCT-116 colon
HCT-15 colon = tested on: HCT-15 colon
HL-60(TB) leukemia = tested on: HL-60(TB) leukemia
HOP-62 NSCLC = tested on: HOP-62 NSCLC
HS 578T breast = tested on: HS 578T breast
HT29 colon = tested on: HT29 colon
IGROV1 ovarian = tested on: IGROV1 ovarian
K-562 leukemia = tested on: K-562 leukemia
KM12 colon = tested on: KM12 colon
M14 melanoma = tested on: M14 melanoma
MCF7 breast = tested on: MCF7 breast
MDA-MB-231 breast = tested on: MDA-MB-231 breast
MDA-MB-435 = tested on: MDA-MB-435
MOLT-4 leukemia = tested on: MOLT-4 leukemia
NCI-H226 lung = tested on: NCI-H226 lung
NCI-H23 lung = tested on: NCI-H23 lung
NCI-H460 lung = tested on: NCI-H460 lung
NCI/ADR-RES ovarian = tested on: NCI/ADR-RES ovarian
OVCAR-3 ovarian = tested on: OVCAR-3 ovarian
OVCAR-5 ovarian = tested on: OVCAR-5 ovarian
OVCAR-8 ovarian = tested on: OVCAR-8 ovarian
PC-3 prostate = tested on: PC-3 prostate
RPMI-8226 leukemia = tested on: RPMI-8226 leukemia
RXF 393 renal = tested on: RXF 393 renal
SF-268 CNS = tested on: SF-268 CNS
SF-295 CNS = tested on: SF-295 CNS
SF-539 CNS = tested on: SF-539 CNS
SK-MEL-2 melanoma = tested on: SK-MEL-2 melanoma
SK-MEL-28 melanoma = tested on: SK-MEL-28 melanoma
SK-MEL-5 melanoma = tested on: SK-MEL-5 melanoma
SN12C renal = tested on: SN12C renal
SNB-19 CNS = tested on: SNB-19 CNS
SNB-75 CNS = tested on: SNB-75 CNS
SR leukemia = tested on: SR leukemia
SW-620 colon = tested on: SW-620 colon
T-47D breast = tested on: T-47D breast
TK-10 renal = tested on: TK-10 renal
U251 CNS = tested on: U251 CNS
UACC-257 melanoma = tested on: UACC-257 melanoma
UACC-62 melanoma = tested on: UACC-62 melanoma
UO-31 renal = tested on: UO-31 renal

Measured: TGI

CN(C)c1nncc2[nH]cnc12
> 100 µM: all assays above

Source: PubChem BioAssay (NCI)
